In patent publication US20250154154A1 (Relay Binney Street, 2nd Floor, priority 2020, published 2025) one finds IC50 data, which are given here for 28 compounds.

pIC50: −log10 of the molar value. A value given as a limit tells only on which side of the number the result lay.

One assay has as its system RBE cells. Put plainly: Cell Viability Protocol (CellTiterGlo), RBE cells. Type of assay: cell-based. To be noted: RBE or SNU-1079 cells, 72 or 120 hour, cell line and time not given. Put shortly: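 RBE cells plated at 1200/well in RPMI 1640 with 10% FBS, incubated 24 h, then dosed with compound from DMSO stocks and incubated 72 or 120 h at 37° C. CellTiterGlo luminescence normalised to DMSO control; IC50 from 4-parameter fit.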

Assay [1] relates to phospho-S6RP (Ser 235/236) in RBE cells. Put plainly: Cellular Proliferation Protocol (cellular phospho-S6RP HTRF), RBE cells. The assay is classed as cell-based. To be noted: 6 hours treatment, RBE or SNU-1079 cells, cell line not given. The procedure:
Cellular Proliferation Protocol
Cellular phospho-S6RP (Ser 235/236) was measured using a Fluorescence Resonance Energy Transfer (FRET) sandwich assay format (Cisbio HTRF Cat. No. 64RP6PEG). This format uses 2 different, labelled antibodies (Eu^3+-Cryptate donor and d2 acceptor) that positively modulate a specific signal in proportion to phospho-S6RP (Ser 235/236) directly in cells. RBE or SNU-1079 cells were cultivated in T-75 flasks at 37° C., 5% CO2, 95% relative humidity in RPMI 1640 medium with 10% FBS and 1% Penicillin/Streptomycin and detached with trypsin/EDTA at 80-90% confluency. Cells were then seeded in 40 μL volume per well in 384-well flat-bottom polystyrene microplates (Corning Cat. No. 3570) at a seeding density of 2000 cells/well for RBE and 3000 cells/well for SNU-1079 followed by 24 hour incubation at 37° C., 5% CO2, 95% relative humidity. On the next day, compounds were diluted to […] the indicated concentrations and 40 nL of these treatment compounds, along with DMSO vehicle control, were added to the cells (final concentration of compounds is then the indicated concentrations). Treatment was carried out for 6 hours at 37° C., 5% CO2, 95% relative humidity after which the plates were cooled to room temperature before aspirating the medium. Cells were then lysed on a shaker for 45 minutes at room temperature with 20 μL of 1× supplemented lysis buffer per well. After lysis, 5 μL of pre-mixed antibodies was added per well. Plates were covered with black sealing film and incubated overnight at room temperature on a shaker before being read on a PerkinElmer EnVision microplate reader. Percent activation was calculated relative to DMSO control and IC50 values were obtained from dose-response data fitted to a 4-parameter curve.

The next assay concerns the target SRC (Homo sapiens, UniProt P12931). Put plainly: SRC Biochemical Assay Protocol (microfluidic mobility shift assay, FLPeptide4 substrate). Put shortly: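 Recombinant SRC (0.26 nM) preincubated 30 min at RT with compound (0.0017–100 μM) and 1.5 μM FLPeptide4, then 50 μM ATP added; 90 min reaction in HEPES pH 7.4, 10 mM MgCl2, 1% DMSO, EDTA-quenched. Phosphopeptide quantified by microfluidic mobility shift; IC50 from 4-parameter logistic fit.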

Sequence of SRC (P12931 whole entry, species assumed): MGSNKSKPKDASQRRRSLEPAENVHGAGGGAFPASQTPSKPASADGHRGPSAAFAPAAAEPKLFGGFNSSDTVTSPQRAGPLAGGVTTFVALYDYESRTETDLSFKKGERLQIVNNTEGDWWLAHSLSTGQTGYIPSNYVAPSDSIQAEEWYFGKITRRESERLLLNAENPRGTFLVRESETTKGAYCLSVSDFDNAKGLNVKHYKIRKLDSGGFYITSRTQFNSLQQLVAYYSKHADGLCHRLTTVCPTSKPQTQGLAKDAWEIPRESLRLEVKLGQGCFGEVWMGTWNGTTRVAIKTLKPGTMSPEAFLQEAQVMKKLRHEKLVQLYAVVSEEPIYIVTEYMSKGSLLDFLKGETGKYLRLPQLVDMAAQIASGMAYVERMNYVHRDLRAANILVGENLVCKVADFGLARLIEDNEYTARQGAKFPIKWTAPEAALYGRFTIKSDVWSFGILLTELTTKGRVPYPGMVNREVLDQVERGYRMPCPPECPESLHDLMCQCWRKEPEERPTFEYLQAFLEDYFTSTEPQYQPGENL

For `C=CC(=O)N1CCC(N2CC(C#Cc3c(-c4ccc(Cl)c(OC)n4)c4c(N)ncnc4n3C)C2)CC1` [II-324], the pIC50 (with RBE cells; in assay [1]; on SRC) was 6.00 to 8.00 throughout.
As for `C=CC(=O)N1CC[C@@H](N2CC(C#Cc3c(-c4ccc(OC5CC5)cc4)c4c(N)ncnc4n3C)C2)[C@@H](O)C1` [II-70], the pIC50 was 6.00 to 8.00 in the assay on RBE cells, 6.00 to 8.00 in assay [1] and 5.00 to 6.00 at SRC.
`C=CC(=O)N1CCC(N2CC(C#Cc3c(-c4ccc(Oc5ccccc5)c(OC)n4)c4c(N)ncnc4n3C)C2)CC1` [II-315]: the pIC50 in the assay on RBE cells was not below 8.00; in assay [1] it was 6.00 to 8.00; at SRC, 6.00 to 8.00.
For the compound `C=CC(=O)N1CCC(N2CC(C#Cc3c(-c4ccc(Cl)cn4)c4c(N)ncnc4n3C)C2)CC1` [II-325], the values for the pIC50 (with RBE cells; in assay [1]; at SRC) were 5.00 to 6.00, 5.00 to 6.00 and 6.00 to 8.00, respectively.
For `C=CC(=O)N1CC[C@@H](N2CC(C#Cc3c(-c4ccc(OC(C)C)c(OC)c4)c4c(N)ncnc4n3C)C2)[C@@H](O)C1` [II-71], the negative logarithm of the IC50 (pIC50) (in the assay with RBE cells; in assay [1]; at SRC) was 6.00 to 8.00 throughout.
As for `CCC(=O)N1C[C@@H]2[C@@H](C#Cc3c(-c4ccc(F)c5c4OCO5)c4c(N)ncnc4n3C(C)C)[C@@H]2C1` [II-133], the pIC50 was 6.00 to 8.00 with RBE cells, 6.00 to 8.00 in assay [1] and not below 8.00 on SRC.
Turning to `C=CC(=O)N1C[C@@H]2[C@@H](C#Cc3c(-c4ccc(F)c5c4OCO5)c4c(N)ncnc4n3C(C)C)[C@@H]2C1` [II-131], the pIC50 (in the assay on RBE cells; in assay [1]; on SRC) was not below 8.00 each time.
Consider `CN(C)C/C=C/C(=O)N1CC(C#Cc2c(-c3ccc(Oc4ccccc4)cc3)c3c(N)ncnc3n2C2CC(=O)N(C)C2)C1` (stereo not drawn) [II-192, (E)-4-(4-amino-6-((1-(4-(dimethylamino)but-2-enoyl)azetidin-3-yl)ethynyl)-5-(4-phenoxyphenyl)-7H-pyrrolo[2,3-d]pyrimidin-7-yl)-1-methylpyrrolidin-2-one], for which the results for the pIC50 (with RBE cells; in assay [1] (6 h); on SRC) were 5.00 to 6.00, 5.00 to 6.00 and 6.00 to 8.00, respectively.
As for `C=CC(=O)N1CC[C@@H](N2CC(C#Cc3c(-c4ccc(Cl)c(C)c4)c4c(N)ncnc4n3C)C2)[C@@H](O)C1` [II-64], the pIC50 (in the assay on RBE cells; in assay [1]; at SRC) was 6.00 to 8.00 in each case.
On to `C=CC(=O)N1C[C@@H]2[C@@H](C#Cc3c(-c4ccc(Oc5ccccc5)cc4)c4c(N)ncnc4n3C3CCOC3)[C@@H]2C1` (stereo partly drawn) [II-209, 1-((1R,5S,6s)-6-((4-amino-5-(4-phenoxyphenyl)-7-(tetrahydrofuran-3-yl)-7H-pyrrolo[2,3-d]pyrimidin-6-yl)ethynyl)-3-aza-bicyclo[3.1.0]hexan-3-yl)prop-2-en-1-one], for which the pIC50 (in the assay with RBE cells; in assay [1] (6 h); at SRC) was not below 8.00 each time.
Take `CN(C)CCC(=O)N1CCC(C#Cc2c(-c3ccc(Oc4ccccc4)cc3)c3c(N)ncnc3n2C)CC1` [II-188]: the pIC50 (in the assay on RBE cells; in assay [1] (6 h); on SRC) was 6.00 to 8.00 each time.
Consider `C=CC(=O)N1CC[C@H](N2CC(C#Cc3c(-c4ccc(Oc5cccc(C)n5)cc4)c4c(N)ncnc4n3C)C2)[C@H](F)C1` [II-202, 1-((3R,4S)-4-(3-((4-amino-7-methyl-5-(4-(6-methylpyridin-2-yloxy)phenyl)-7H-pyrrolo[2,3-d]pyrimidin-6-yl)ethynyl)azetidin-1-yl)-3-fluoropiperidin-1-yl)prop-2-en-1-one], for which the pIC50 (in the assay on RBE cells; in assay [1] (6 h); on SRC) was 6.00 to 8.00 throughout.
With `C=CC(=O)N1CCC(C#Cc2c(-c3ccc(Oc4ccccc4)cc3)c3c(N)ncnc3n2C2CCOC2)CC1` (stereo not drawn) [Example I-32], the pIC50 in the assay with RBE cells is 6.00 to 8.00; in assay [1] (6 h), not below 8.00; on SRC, 6.00 to 8.00.
As for `C=CC(=O)N1CC[C@@H](N2CC(C#Cc3c(-c4ccc(Cl)c(O)c4)c4c(N)ncnc4n3C)C2)[C@@H](O)C1` [II-65], the pIC50 in the assay with RBE cells is 6.00 to 8.00; in assay [1], 6.00 to 8.00; at SRC, not below 8.00.
For the compound `Cc1cccc(Oc2ccc(-c3c(C#C[C@@H]4[C@H]5CN(C(=O)/C=C/CN(C)C)C[C@@H]45)n(C4CCOC4)c4ncnc(N)c34)cc2)n1` (mixture of isomers) [II-28], the pIC50 (in the assay on RBE cells; in assay [1]; at SRC) was 6.00 to 8.00 throughout.
In the case of `C=CC(=O)N(C)CC#Cc1c(-c2ccc(Oc3ccccc3)cc2)c2c(N)ncnc2n1C` [II-163, N-(3-(4-amino-7-methyl-5-(4-phenoxyphenyl)-7H-pyrrolo[2,3-d]pyrimidin-6-yl)prop-2-yn-1-yl)-N-methylacrylamide], the negative logarithm of the IC50 (pIC50) in the assay on RBE cells was 6.00 to 8.00; in assay [1] (6 h), 6.00 to 8.00; on SRC it was not below 8.00.
`CN(C)C/C=C/C(=O)N1C[C@@H]2[C@@H](C#Cc3c(-c4ccc(Oc5ccccc5)cc4)c4c(N)ncnc4n3C)[C@@H]2C1` [III-2]: the pIC50 is not below 8.00 with RBE cells, not below 8.00 in assay [1] and 6.00 to 8.00 on SRC.
`CC(C)n1c(C#CC2C3CN(C(=O)C=CCN(C)C)CC23)c(-c2cccc3c2OCO3)c2c(N)ncnc21` (stereo not drawn) [II-116]: the pIC50 (with RBE cells; in assay [1]; on SRC) was not below 8.00 in each case.
In the case of `C=CS(=O)(=O)N1CC[C@@H](N2CC(C#Cc3c(-c4ccc(Oc5ccccc5)cc4)c4c(N)ncnc4n3C)C2)[C@@H](O)C1` [II-280], the pIC50 in the assay on RBE cells is not below 8.00; in assay [1] (6 h), 6.00 to 8.00; on SRC it was not below 8.00.
In the case of `C=CC(=O)N1CCC(C#Cc2c(-c3ccc(Oc4ccccc4)cc3)c3c(N)ncnc3n2C2CCNC2=O)CC1` (stereo not drawn) [Example I-61], the figures for the pIC50 (in the assay on RBE cells; in assay [1] (6 h); at SRC) were 5.00 to 6.00, 5.00 to 6.00 and 6.00 to 8.00, respectively.
Consider `C=CC(=O)N1CCC(C#Cc2c(-c3ccc(Br)c(OC)c3)c3c(N)ncnc3n2C(C)C)CC1` [II-160, 1-(4-((4-amino-5-(4-bromo-3-methoxyphenyl)-7-isopropyl-7H-pyrrolo[2,3-d]pyrimidin-6-yl)ethynyl)piperidin-1-yl)prop-2-en-1-one], for which the pIC50 in the assay with RBE cells was 6.00 to 8.00; in assay [1] (6 h) it was 6.00 to 8.00; on SRC it was not below 8.00.
Turning to `C=CC(=O)N1C[C@@H]2[C@@H](C#Cc3c(-c4cc(Cl)ccc4OC)c4c(N)ncnc4n3C)[C@@H]2C1` [II-260], the negative logarithm of the IC50 (pIC50) (in the assay on RBE cells; in assay [1] (6 h); on SRC) was 6.00 to 8.00 each time.
With `C=CC(=O)N1CCC(N2CC(C#Cc3c(-c4ccc(OC5CC5)c(OC)c4)c4c(N)ncnc4n3C)C2)CC1` [II-98], the pIC50 (in the assay on RBE cells; in assay [1]; on SRC) was 6.00 to 8.00 in each case.
Turning to `C=CC(=O)N1CCC(N2CC(C#Cc3c(-c4ccc5c(c4)N(C)CCO5)c4c(N)ncnc4n3C)C2)CC1` [II-107], the pIC50 (in the assay on RBE cells; in assay [1]; at SRC) was 5.00 to 6.00 in each case.
With `C=CC(=O)N1CC[C@@H](N2CC(F)(C#Cc3c(-c4ccc(Oc5ccccc5)cc4)c4c(N)ncnc4n3C)C2)C[C@H]1CO` [II-205, 1-((2S,4R)-4-(3-((4-amino-7-methyl-5-(4-phenoxyphenyl)-7H-pyrrolo[2,3-d]pyrimidin-6-yl)ethynyl)-3-fluoroazetidin-1-yl)-2-(hydroxymethyl)piperidin-1-yl)prop-2-en-1-one], the pIC50 (in the assay with RBE cells; in assay [1] (6 h); at SRC) was 6.00 to 8.00 each time.
For `C=CC(=O)N[C@@H](CO)C(=O)N1CCC(C#Cc2c(-c3ccc(Oc4ccccc4)cc3)c3c(N)ncnc3n2C)CC1` [II-198], the pIC50 (in the assay with RBE cells; in assay [1] (6 h); at SRC) was not below 8.00 each time.
Turning to `C=CC(=O)N1CC[C@@H](N2CC(C#Cc3c(-c4ccc(Cl)c(CO)c4)c4c(N)ncnc4n3C)C2)[C@@H](O)C1` [II-59], the results for the pIC50 (with RBE cells; in assay [1]; at SRC) were 5.00 to 6.00, 6.00 to 8.00 and 6.00 to 8.00, respectively.
As for `C=CC(=O)N1CCC(C#Cc2c(-c3ccc(Oc4ccccc4)cc3)c3c(N)ncnc3n2C(C)CO)CC1` (stereo not drawn) [Example I-27], the pIC50 in the assay on RBE cells is 6.00 to 8.00; in assay [1] (6 h), not below 8.00; at SRC, 6.00 to 8.00.
